US20230293629A1, “METHODS FOR ATTENUATING RELEASE OF INFLAMMATORY MEDIATORS AND PEPTIDES USEFUL THEREIN” (BIOMARCK PHARMACEUTICALS LTD., priority 2006, published 2023)
Where a SMILES comes first, the peptide text is derived from it. Where no end group is shown, it is not given here. The star is where a group is joined. Myristoyl = CCCCCCCCCCCCCC(=O)*

Key:
U937 cells = experiment: PMA-stimulated lysozyme secretion by U937 cells; assay type: cell-based, human; settings: 50 μM test peptide, two hour incubation with 100 nM PMA; U937 cells
Procedure: (§1) Three types of human leukocyte cell lines, specifically the promyelocytic cell line HL-60 clone 15, the monocytic cell line U937, and the lymphocyte natural killer cell line NK-92 were purchased from American Type Culture Collection (ATCC; Rockville, MD). HL-60 clone 15 cells (ATCC CRL-1964) were maintained in medium consisting of RPMI 1640 with L-glutamine supplemented with 10% heat-inactivated fetal bovine serum (Gibco; Invitrogen Co., Carlsbad, CA), 50 IU/ml penicillin, 50 μg/mL streptomycin, and 25 mM HEPES buffer, pH 7.8, at 37° C. in an atmosphere containing 5% CO2. Final differentiation to an eosinophil-like phenotype was initiated by culturing cells at 5×10^5 cells/ml in the above medium containing 0.5 mM butyric acid (Sigma-Aldrich Co.) for 5 days as previously described (Tiffany H L, Li F, Rosenberg H F. Hyperglycosylation of eosinophil ribonucleases in a promyelocytic leukemia cell line and in differentiated peripheral blood progenitor cells. J Leukoc Biol 1995; 58:49-54; Tiffany H L, Alkhatib G, Combadiere C, Berger E A, Murphy P M. CC chemokine receptors 1 and 3 are differentially regulated by IL-5 during maturation of eosinophilic HL-60 cells. J Immunol 1998; 160:1385-1392). U937 cells (ATCC CRL-1593.2) were grown at 37° C. in an atmosphere of 5% CO2 in complete medium consisting of RPMI 1640 with L-glutamine supplemented with 10% FBS, 50 IU/ml penicillin, and 50 μg/mL streptomycin. NK-92 cells (ATCC CRL-2407) were maintained in alpha-MEM medium (Sigma-Aldrich Co.) supplemented with 20% FBS, 100 U/ml of interleukin-2 (IL-2) (Chemicon International, Inc., Temecula, CA), 5×10^−5 M of 2-mercaptoethanol, 50 IU/mL penicillin, and 50 μg/ml streptomycin at 37° C. in an atmosphere containing 5% CO2. Cell morphology was judged by assessment of Wright-Giemsa-stained cells. Viability of cells harvested for experiments was assessed by trypan blue exclusion and populations of cells with viability >95% were used.
(§2) HL-60 clone 15, U937, and NK-92 cells were washed and resuspended at 2.5×10^6 cells/ml in phenol red-free RPMI-1640 (Cellgro; Mediatech, Inc.) for all degranulation assays. Aliquots of cells in 15 ml tubes were preincubated with indicated concentrations of MANS, RNS, or a test peptide for 10 min at 37° C. The cells then were stimulated with PMA for up to 2 hr. A control reference (PMA control reference) was established for each cell type using HL-60 clone 15, U937, and NK-92 cells, respectively, which were washed and resuspended at 2.5×10^6 cells/ml in phenol red-free RPMI-1640 and stimulated with PMA but in the absence of MANS, RNS, or a test peptide for the same time periods. The reaction was terminated by placing tubes on ice and centrifuging cells at 400 g for 5 min at 4° C.
(§3) For measurements of released MPO from neutrophils and released lysozyme from U937 cells, we were able to quantify secretion by using as standards human MPO and egg white […], respectively. For released EPO from HL-60 clone 15 cells and for released granzyme from NK-92 cells, no standards were available to use for quantification. […] To measure intracellular EPO in HL-60 clone 15 cells and intracellular granzyme in NK-92 cells, appropriate aliquots of 0.1% triton X-100-lysed cells were taken for quantification of intracellular granule proteins as described below. All treatments were expressed as percentage of control to minimize variability between cultures.
Lysozyme secreted by U937 cells was measured using a spectrophotometric assay as described previously (Balboa M A, Saez Y, Balsinde J. Calcium-independent phospholipase A2 is required for lysozyme secretion in U937 promonocytes. J Immunol 2003; 170:5276-5280) with slight modification. Thus, 100 μL of sample was mixed with 100 μL of a Micrococcus lysodeikticus (Sigma-Aldrich Co.) suspension (0.3 mg/ml in 0.1 M sodium phosphate buffer, pH 7.0) in a 96-well microplate. The decrease in absorbance at 450 nm was measured at room temperature. […]

HL-60 clone 15 cells = experiment: PMA-stimulated EPO release from HL-60 clone 15 cells; assay type: cell-based, human; settings: 50 μM test peptide, two hour incubation with 100 nM PMA; HL-60 clone 15 cells
Procedure: as §1, §2, §3
EPO activity released by HL-60 clone 15 cells was assayed using TMB according to a previously established technique (Lacy P, Mahmudi-Azer S, Bablitz B, Hagen S C, Velazquez J R, Man S F, Moqbel R. Rapid mobilization of intracellularly stored RANTES in response to interferon-gamma in human eosinophils. Blood 1999; 94:23-32). Thus, 100 μL of TMB substrate solution was added to 50 μL=microliters) of sample in a 96-well microplate and incubated at room temperature for 15 min (min=minutes). […]

[1] = Qualitative solubility of peptides in 0.5 N saline, pH 6.5

| Molecule | % Inhibition Lysozyme (U937 cells) | % Inhibition EPO (HL-60 clone 15 cells) | solubility [1] |
| --- | --- | --- | --- |
| Ac-GAQFSKTAAKGEAAAE [Ac-GAQFSKTAAKGEAAAE, GAQFSKTAAKGEAAAE] | 8.4% | 56.6% |  |
| Ac-SKTAAKGE-NH2 [Ac-SKTAAKGE-NH2, SKTAAKGE] | 0% | 42.2% | > 200 mg/mL |
| Ac-GAQFSKTAAA [Ac-GAQFSKTAAA, GAQFSKTAAA] | 28.3% | 55.2% | > 100 mg/mL |
| CCCCCCCCCCCCCC(=O)N[C@@H](C)C(=O)N[C@@H](CCCCN)C(=O)NCC(=O)N[C@@H](CCC(=O)O)C(=O)N[C@@H](C)C(=O)N[C@@H](C)C(=O)N[C@@H](C)C(=O)N[C@@H](CCC(=O)O)C(=O)N[C@@H](CCCNC(=N)N)C(=O)N1CCC[C@H]1C(=O)NCC(=O)N[C@@H](CCC(=O)O)C(=O)N[C@@H](C)C(=O)N[C@@H](C)C(=O)N[C@H](C(=O)N[C@@H](C)C(=O)O)C(C)C [MA-AKGEAAAERPGEAAVA, AKGEAAAERPGEAAVA] (Myristoyl-AKGEAAAERPGEAAVA-OH; C-terminus assumed) | 98% | 18.1% | > 80 mg/mL |
| CC(=O)N[C@@H](C)C(=O)N[C@@H](C)C(=O)NCC(=O)N[C@@H](CCC(=O)O)C(=O)O [Ac-AAGE, AAGE] (Ac-AAGE-OH; C-terminus assumed) | 36.9% | 39.1% | > 200 mg/mL |
| CC(=O)N[C@@H](C)C(=O)N[C@@H](CCCCN)C(=O)NCC(=O)N[C@@H](CCC(=O)O)C(N)=O [Ac-AKGE-NH2, AKGE] (Ac-AKGE-NH2) | 26.8% | 45.6% | > 200 mg/mL |
| Ac-GAQFSKTAAKGE [Ac-GAQFSKTAAKGE, GAQFSKTAAKGE] | 43.3% | 46.7% | > 100 mg/mL |
| Ac-AAAERPGEAAVA [Ac-AAAERPGEAAVA, AAAERPGEAAVA] | 29.5% | 51.2% |  |
| CCCCCCCCCCCCCC(=O)N[C@@H](C)C(=O)N[C@@H](C)C(=O)N[C@@H](C)C(=O)N[C@@H](CCC(=O)O)C(=O)N[C@@H](CCCNC(=N)N)C(=O)N1CCC[C@H]1C(=O)NCC(=O)N[C@@H](CCC(=O)O)C(=O)N[C@@H](C)C(=O)N[C@@H](C)C(=O)N[C@H](C(=O)N[C@@H](C)C(=O)O)C(C)C [MA-AAAERPGEAAVA, AAAERPGEAAVA] (Myristoyl-AAAERPGEAAVA-OH; C-terminus assumed) | 98% | 21.6% | < 20 mg/mL |
| CCCCCCCCCCCCCC(=O)N[C@@H](CO)C(=O)N[C@@H](CCCCN)C(=O)N[C@H](C(=O)N[C@@H](C)C(=O)N[C@@H](C)C(=O)N[C@@H](CCCCN)C(=O)NCC(=O)N[C@@H](CCC(=O)O)C(=O)N[C@@H](C)C(=O)N[C@@H](C)C(=O)N[C@@H](C)C(=O)N[C@@H](CCC(=O)O)C(=O)N[C@@H](CCCNC(=N)N)C(=O)N1CCC[C@H]1C(=O)NCC(=O)N[C@@H](CCC(=O)O)C(=O)N[C@@H](C)C(=O)N[C@@H](C)C(=O)N[C@H](C(=O)N[C@@H](C)C(=O)O)C(C)C)[C@@H](C)O (Myristoyl-SKTAAKGEAAAERPGEAAVA-OH; C-terminus assumed) | 99% | 0% | > 80 mg/mL |
| Ac-TAAKGEAA [Ac-TAAKGEAA, TAAKGEAA] | 0.5% | 40.4% | > 230 mg/mL |
| Ac-GAQFSKTA [Ac-GAQFSKTA, GAQFSKTA] | 0% | 0% | > 200 mg/mL |
| Ac-GAQFSKTAAKGA [Ac-GAQFSKTAAKGA, GAQFSKTAAKGA] | 24.1% | 40.9% | > 50 mg/mL |
| Ac-KTAAKGE-NH2 [Ac-KTAAKGE-NH2, KTAAKGE] | 24.3% | 0% | > 200 mg/mL |
| Ac-GAQFSKTAAKGEAAAERPGE | 0.0% | 48.8% |  |
| CC(=O)N[C@@H](C)C(=O)N[C@@H](CCCCN)C(=O)NCC(=O)N[C@@H](CCC(=O)O)C(=O)O [Ac-AKGE, AKGE] (Ac-AKGE-OH; C-terminus assumed) | 7.2% | 87.6% | > 200 mg/mL |
| CCCCCCCCCCCCCC(=O)N[C@H](C(=O)N[C@@H](C)C(=O)N[C@@H](C)C(=O)N[C@@H](CCCCN)C(=O)NCC(=O)N[C@@H](CCC(=O)O)C(=O)N[C@@H](C)C(=O)N[C@@H](C)C(=O)O)[C@@H](C)O [MA-TAAKGEAA, TAAKGEAA] (Myristoyl-TAAKGEAA-OH; C-terminus assumed) | 80.2% | 0% | < 1 mg/mL |
| CCCCCCCCCCCCCC(=O)NCC(=O)N[C@@H](C)C(=O)N[C@@H](CCC(N)=O)C(=O)N[C@@H](Cc1ccccc1)C(=O)N[C@@H](CO)C(=O)N[C@@H](CCCCN)C(=O)N[C@H](C(=O)N[C@@H](C)C(=O)N[C@@H](C)C(=O)N[C@@H](CCCCN)C(=O)NCC(=O)N[C@@H](CCC(=O)O)C(=O)N[C@@H](C)C(=O)N[C@@H](C)C(=O)N[C@@H](C)C(=O)N[C@@H](CCC(=O)O)C(=O)N[C@@H](CCCNC(=N)N)C(=O)N1CCC[C@H]1C(=O)NCC(=O)N[C@@H](CCC(=O)O)C(=O)O)[C@@H](C)O (Myristoyl-GAQFSKTAAKGEAAAERPGE-OH; C-terminus assumed) | 99% | 33.6% |  |
| CCCCCCCCCCCCCC(=O)N[C@@H](CCCNC(=N)N)C(=O)N1CCC[C@H]1C(=O)NCC(=O)N[C@@H](CCC(=O)O)C(=O)N[C@@H](C)C(=O)N[C@@H](C)C(=O)N[C@H](C(=O)N[C@@H](C)C(=O)O)C(C)C [MA-RPGEAAVA, RPGEAAVA] (Myristoyl-RPGEAAVA-OH; C-terminus assumed) | 99% | 0% |  |
| Ac-AKGEAAAERPGEAAVA [Ac-AKGEAAAERPGEAAVA, AKGEAAAERPGEAAVA] | 34.3% | 72.3% |  |
| Ac-RPGEAAVA [Ac-RPGEAAVA, RPGEAAVA] | 0.0% | 45.8% |  |
